In patent publication US20240132513A1, “BENZAZEPINE DERIVATIVES, COMPOSITIONS, AND METHODS FOR TREATING COGNITIVE IMPAIRMENT” (AGENEBIO, INC., priority 2022, published 2024) one finds Ki and activation data, which are given here for 26 compounds.

Where two headings read alike, the source gives them in different places. A value given as a limit tells only on which side of the number the result lay.

One test concerns the target α5β3γ2 GABAA R (Homo sapiens, UniProt P18507+P31644). In words: Binding activity on GABAA R: inhibition of [3H]Ro15-1788 binding, α5 containing receptor. The essentials:
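Membranes from dexamethasone-induced (0.5 μM, 1 day) Ltk cells stably expressing α5β3γ2 receptors, 0.2 mg/ml protein, incubated with [3H]Ro15-1788 for 1 h at 4 °C in 50 mM KH2PO4/1 mM EDTA/0.2 M KCl, pH 7.4. Nonspecific binding with 10 μM diazepam; bound ligand by GF/B filtration and scintillation counting, triplicates.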

The next test concerns the target T1, GABAA R (α5β2γ2) (Homo sapiens, UniProt P18507+P31644).
T1 construct: expressed in transfected cells
Kind of test: Positive allosteric modulator activity: potentiation of EC20 GABA current in oocytes. Type of test: cell-based. Put shortly: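 Xenopus oocytes injected with 1 ng α5:β2:γ2 cDNA (1:1:10 by weight), tested day 2, voltage-clamped at −60 mV under MBS superfusion.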

Setting [1] is: read-out: GABA α5 Functional Data: potentiation, @ 100 nM, EC20 GABA, ranges of the column heads.
Setting [2] is: ranges of the column heads, [3H]Ro15-1788, Ltk cell membranes.
Setting [3] is: read-out: GABA α5 Functional Data: potentiation.

T1 sequence (P31644 32-462): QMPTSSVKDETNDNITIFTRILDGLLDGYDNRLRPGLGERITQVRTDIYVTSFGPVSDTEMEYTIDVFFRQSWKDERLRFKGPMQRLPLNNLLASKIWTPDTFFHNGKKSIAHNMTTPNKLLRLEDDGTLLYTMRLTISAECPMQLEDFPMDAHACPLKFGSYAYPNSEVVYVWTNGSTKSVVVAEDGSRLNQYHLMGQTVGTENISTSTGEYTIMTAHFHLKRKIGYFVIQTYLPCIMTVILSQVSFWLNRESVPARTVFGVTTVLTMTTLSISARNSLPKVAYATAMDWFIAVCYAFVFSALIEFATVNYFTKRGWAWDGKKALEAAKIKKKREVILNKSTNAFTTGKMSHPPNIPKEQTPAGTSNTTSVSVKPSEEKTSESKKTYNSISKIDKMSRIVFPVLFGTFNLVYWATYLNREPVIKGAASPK
T1 sequence (P47870 25-512 partner limits assumed): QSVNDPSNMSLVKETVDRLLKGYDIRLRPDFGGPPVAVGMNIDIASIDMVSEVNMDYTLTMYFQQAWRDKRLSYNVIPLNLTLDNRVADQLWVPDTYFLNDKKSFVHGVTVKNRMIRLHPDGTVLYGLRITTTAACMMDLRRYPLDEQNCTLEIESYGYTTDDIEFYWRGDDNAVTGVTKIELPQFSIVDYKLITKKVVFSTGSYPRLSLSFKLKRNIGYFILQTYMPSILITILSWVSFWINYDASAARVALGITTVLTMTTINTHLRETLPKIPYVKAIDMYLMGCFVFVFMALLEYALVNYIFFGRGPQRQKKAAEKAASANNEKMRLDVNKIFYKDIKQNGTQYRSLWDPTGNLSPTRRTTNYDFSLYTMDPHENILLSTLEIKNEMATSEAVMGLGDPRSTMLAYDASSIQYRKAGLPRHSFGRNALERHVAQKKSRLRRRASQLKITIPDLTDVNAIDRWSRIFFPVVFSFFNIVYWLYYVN
T1 sequence (P18507 40-475): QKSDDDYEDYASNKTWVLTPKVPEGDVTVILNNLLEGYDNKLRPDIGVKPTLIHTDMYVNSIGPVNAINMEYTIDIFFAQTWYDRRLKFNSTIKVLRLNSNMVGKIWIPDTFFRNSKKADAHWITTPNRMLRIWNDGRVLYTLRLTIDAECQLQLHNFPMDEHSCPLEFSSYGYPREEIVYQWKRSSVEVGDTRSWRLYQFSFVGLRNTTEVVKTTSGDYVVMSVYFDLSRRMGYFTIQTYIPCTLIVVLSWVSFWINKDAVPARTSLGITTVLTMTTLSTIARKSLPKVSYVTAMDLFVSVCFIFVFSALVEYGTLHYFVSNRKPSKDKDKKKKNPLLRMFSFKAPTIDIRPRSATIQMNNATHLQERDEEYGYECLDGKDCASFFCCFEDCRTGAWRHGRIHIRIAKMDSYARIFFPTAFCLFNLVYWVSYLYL
α5β3γ2 GABAA R, sequence (P31644 32-462): as the sequence (P31644 32-462) above
α5β3γ2 GABAA R, sequence (P28472 26-473 partner): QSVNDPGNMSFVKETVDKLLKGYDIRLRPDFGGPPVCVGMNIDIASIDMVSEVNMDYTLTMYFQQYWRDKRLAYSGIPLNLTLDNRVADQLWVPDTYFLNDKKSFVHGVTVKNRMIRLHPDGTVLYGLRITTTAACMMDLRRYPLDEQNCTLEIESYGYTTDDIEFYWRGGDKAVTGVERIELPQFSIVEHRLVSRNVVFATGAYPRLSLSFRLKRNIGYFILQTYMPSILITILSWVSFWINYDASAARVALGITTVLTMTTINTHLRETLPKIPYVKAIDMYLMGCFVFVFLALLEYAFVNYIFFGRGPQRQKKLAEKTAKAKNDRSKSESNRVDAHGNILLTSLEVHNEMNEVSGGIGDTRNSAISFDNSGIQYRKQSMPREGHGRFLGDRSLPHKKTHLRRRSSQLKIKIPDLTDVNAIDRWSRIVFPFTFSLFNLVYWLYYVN
α5β3γ2 GABAA R, sequence (P18507 40-475): as the sequence (P18507 40-475) above

For the compound `COCc1nc(-c2ncn3c2Cc2cn(CC4CCCO4)nc2-c2cc(OC)ccc2-3)no1` (stereo not shown) [Compound 293], the Ki (commonly a measure of affinity in units of concentration, obtained from inhibition or displacement) at α5β3γ2 GABAA R was less than 100 nM. The activation at 0.1 µM on GABAA R (α5β2γ2) (setting [1]) fell in the range of 20 to 50%.

With `COC1(c2nc(-c3ncn4c3Cc3cn(C)nc3-c3cc(Cl)ccc3-4)no2)CC1` [Compound 216], at α5β3γ2 GABAA R, the Ki is less than 100 nM. On GABAA R (α5β2γ2) (setting [1]), the activation at 0.1 µM is 5 to 20%.

As to `COc1ccc2c(c1)-c1nn(CC3CCCO3)cc1Cc1c(-c3noc(C(C)(C)OC)n3)ncn1-2` (stereo not shown) [Compound 283], the Ki on α5β3γ2 GABAA R is less than 100 nM. The activation at 0.1 µM on GABAA R (α5β2γ2) (setting [1]) is more than 50%.

In turn, `CCn1cc2c(n1)-c1cc(Cl)ccc1-n1cnc(C3=N[C@H](c4ccccc4)CO3)c1C2` [Compound 178] yielded a Ki at α5β3γ2 GABAA R of less than 100 nM. In addition, at GABAA R (α5β2γ2) (setting [1]), the activation at 0.1 µM fell in the range of 20 to 50%.

Take `COc1ccc2c(c1)-c1nn(CC3CCOC3)cc1Cc1c(-c3nc(C(C)C)no3)ncn1-2` (stereo not shown) [Compound 245]: the Ki on α5β3γ2 GABAA R is less than 100 nM. At GABAA R (α5β2γ2) (setting [1]), the activation at 0.1 µM fell in the range of 20 to 50%.

At α5β3γ2 GABAA R, `CCn1cc2c(n1)-c1cc(OC)ccc1-n1cnc(-c3noc(CN(C)C)n3)c1C2` [Compound 248] yielded a Ki of less than 100 nM. Moreover, the activation at 0.1 µM at GABAA R (α5β2γ2) (setting [1]) is 20 to 50%.

`COc1ccc2c(c1)-c1nn(CC3CCCO3)cc1Cc1c(-c3nc(C(C)C)no3)ncn1-2` (stereo not shown) [Compound 231] had an inhibition constant Ki on α5β3γ2 GABAA R of less than 100 nM. The activation at 0.1 µM at GABAA R (α5β2γ2) (setting [1]) lay in the range of 5 to 20%.

On to `Cc1noc(-c2ncn3c2Cc2cn(CC4CCOC4)nc2-c2cc(Cl)ccc2-3)n1` (stereo not shown) [Compound 161], for which the Ki at α5β3γ2 GABAA R is less than 100 nM. For the same compound, the activation at 0.1 µM at GABAA R (α5β2γ2) (setting [1]) lay in the range of 20 to 50%.

On to `CCn1cc2c(n1)-c1cc(Cl)ccc1-n1cnc(-c3nc(CN4CCCC4)no3)c1C2` [Compound 266], for which the Ki on α5β3γ2 GABAA R (setting [2]) was less than 100 nM. Also, at GABAA R (α5β2γ2) (setting [1]), the activation at 0.1 µM lay in the range of 5 to 20%.

In the case of `COc1ccc2c(c1)-c1nn(C)cc1Cc1c(-c3noc(C4(OC)CC4)n3)ncn1-2` [Compound 203], the Ki on α5β3γ2 GABAA R is less than 100 nM. Moreover, the activation at 0.1 µM at GABAA R (α5β2γ2) (setting [1]) lay in the range of 20 to 50%.

In turn, `COc1ccc2c(c1)-c1nn(C(C)C)cc1Cc1c(-c3noc(C(C)C)n3)ncn1-2` [Compound 114] had a Ki at α5β3γ2 GABAA R of less than 100 nM. For the same compound, the activation at 0.1 µM at GABAA R (α5β2γ2) (setting [1]) was 20 to 50%.

With `Cc1noc(-c2ncn3c2Cc2cn(C(C)C)nc2-c2cc(Cl)ccc2-3)n1` [Compound 160], the Ki at α5β3γ2 GABAA R is less than 100 nM. For the same compound, on GABAA R (α5β2γ2) (setting [1]), the activation at 0.1 µM lay within 20 to 50%.

As to `Clc1ccc2c(c1)-c1nn(CC3CCCO3)cc1Cc1c(-c3noc(C4CCOC4)n3)ncn1-2` (stereo not shown) [Compound 308], the Ki on α5β3γ2 GABAA R was less than 100 nM. Further, on GABAA R (α5β2γ2) (setting [1]), the activation at 0.1 µM was 20 to 50%.

`CC(C)c1noc(-c2ncn3c2Cc2cn[nH]c2-c2cc(Cl)ccc2-3)n1` [Compound 34] had an inhibition constant (Ki) at α5β3γ2 GABAA R of less than 100 nM. The activation at 0.1 µM at GABAA R (α5β2γ2) (setting [1]) was in the range of 20 to 50%.

Compound `COc1ccc2c(c1)-c1nn(C3CCOC3)cc1Cc1c(-c3noc(COCC(F)(F)F)n3)ncn1-2` (stereo not shown) [Compound 279] returned a Ki on α5β3γ2 GABAA R of less than 100 nM. Besides, the activation at 0.1 µM at GABAA R (α5β2γ2) (setting [1]) was 20 to 50%.

Compound `COc1ccc2c(c1)-c1[nH]ncc1Cc1c(C#Cc3ccnn3C)ncn1-2` [Compound 39] yielded a Ki at α5β3γ2 GABAA R (setting [2]) of less than 100 nM. Besides, on GABAA R (α5β2γ2) (setting [3]), the activation at 0.1 µM lay in the range of 20 to 50%.

As to `Clc1ccc2c(c1)-c1[nH]ncc1Cc1c(-c3nc(C4CCCCC4)no3)ncn1-2` [Compound 123], the inhibition constant (Ki) on α5β3γ2 GABAA R was less than 100 nM. For the same compound, the activation at 0.1 µM on GABAA R (α5β2γ2) (setting [1]) is 5 to 20%.

`Clc1ccc2c(c1)-c1[nH]ncc1Cc1c(-c3cnco3)ncn1-2` [Compound 93] displayed a Ki at α5β3γ2 GABAA R (setting [2]) of less than 100 nM. For the same compound, the activation at 0.1 µM at GABAA R (α5β2γ2) (setting [3]) lay within 5 to 20%.

At α5β3γ2 GABAA R, `COCc1noc(-c2ncn3c2Cc2cn(CC4CCCO4)nc2-c2cc(Cl)ccc2-3)n1` (stereo not shown) [Compound 288] yielded an inhibition constant (Ki) of less than 100 nM. For the same compound, the activation at 0.1 µM on GABAA R (α5β2γ2) (setting [1]) is more than 50%.

`Cn1cc2c(n1)-c1cc(Cl)ccc1-n1cnc(-c3nc(CN4CCOCC4)no3)c1C2` [Compound 250] yielded a Ki at α5β3γ2 GABAA R (setting [2]) of less than 100 nM. The activation at 0.1 µM on GABAA R (α5β2γ2) (setting [3]) was more than 50%.

As to `Cc1noc(-c2ncn3c2Cc2cn[nH]c2-c2cc(Cl)ccc2-3)n1` [Compound 33], the Ki on α5β3γ2 GABAA R is less than 100 nM. The activation at 0.1 µM on GABAA R (α5β2γ2) (setting [1]) fell in the range of 20 to 50%.

Consider `CCn1cc2c(n1)-c1cc(OC)ccc1-n1cnc(-c3noc(C4CC4)n3)c1C2` [Compound 157], for which the inhibitory constant (Ki) on α5β3γ2 GABAA R was less than 100 nM. Besides, on GABAA R (α5β2γ2) (setting [1]), the activation at 0.1 µM was 20 to 50%.

In the case of `COc1ccc2c(c1)-c1[nH]ncc1Cc1c(-c3nc(C)no3)ncn1-2` [Compound 9], the Ki at α5β3γ2 GABAA R (setting [2]) was less than 100 nM. Also, at GABAA R (α5β2γ2) (setting [3]), the activation at 0.1 µM was in the range of 5 to 20%.

Compound `CCn1cc2c(n1)-c1cc(OC)ccc1-n1cnc(-c3noc(C(C)C)n3)c1C2` [Compound 156] came in with an inhibition constant (Ki) on α5β3γ2 GABAA R of less than 100 nM. Further, the activation at 0.1 µM on GABAA R (α5β2γ2) (setting [1]) was in the range of 20 to 50%.

The compound `COc1ccc2c(c1)-c1[nH]ncc1Cc1c(-c3noc(C4COCCO4)n3)ncn1-2` (stereo not shown) [Compound 187] had a Ki on α5β3γ2 GABAA R of less than 100 nM. Further, on GABAA R (α5β2γ2) (setting [1]), the activation at 0.1 µM was in the range of 20 to 50%.

On α5β3γ2 GABAA R (setting [2]), `COc1ccc2c(c1)-c1nn(CC3CCOC3)cc1Cc1c(-c3ncc(C)o3)ncn1-2` (stereo not shown) [Compound 287] displayed an inhibition constant (Ki) of less than 100 nM. For the same compound, the activation at 0.1 µM at GABAA R (α5β2γ2) (setting [3]) was 20 to 50%.
